Measurements from EP4582413A1, “ARYLTETRAHYDROPYRIDINE COMPOUND AND PEST CONTROL AGENT” (priority 2022, dated 2024).

How the values were obtained:
Format in all cases: in vivo
[1] = system: brown rice planthoppers (Nilaparvata lugens); experiment: Insecticidal test for brown rice planthoppers; conditions: Nilaparvata lugens, 144 h; 500 ppm chemical solution, rice leaf sheaths soaked, third-instar larvae, six days, 25°C; read-out: death rate
Procedure, shortened: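 Rice leaf sheaths dipped ~10 s in 500 ppm compound solution (emulsion diluted in water with spreader), air-dried, then infested with five third-instar larvae per tube at 25 °C. Mortality scored after 6 days, death rate calculated, in duplicate.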

[2] = system: green peach aphids (Myzus persicae); experiment: Insecticidal test for green peach aphids; conditions: Myzus persicae, foliar, 144 h; 500 ppm chemical solution sprinkled (2.5 mg/cm^2), wingless imagoes on leaf disc, six days, 25°C; read-out: death rate
Experimental: Wet absorbent cotton was laid on each glass dish having an inner diameter of 3 cm, a Chinese olive leaf cut into a circle having a diameter of 3 cm was placed thereon, and four wingless green peach aphids (Myzus persicae) imagoes were released. After a day, a 10% by mass emulsion of the presently invented compound prepared according to the above formulation example for an emulsion was diluted with water containing a spreader to prepare a chemical solution having a concentration of 500 ppm. The chemical solution prepared was sprinkled (2.5 mg/cm^2) with a rotary tower sprinkler, and the dishes were capped and accommodated in a thermostatic room at 25°C. […] The test was carried out in duplicate.

[3] = system: western flower thrips (Frankliniella occidentalis); experiment: Insecticidal activity against western flower thrips; conditions: Frankliniella occidentalis, 48 h; 500 ppm chemical solution sprinkled (2.5 mg/cm^2), larvae on common bean leaf, after 2 days; read-out: death rate
Procedure, shortened: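 Bean leaf squares on wet filter paper inoculated with 20 larvae. Compound emulsion diluted with spreader-containing water to 500 ppm and sprayed at 2.5 mg/cm^2 by rotary tower. Run in duplicate.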

[4] = system: diamondback moths (Plutella xylostella); experiment: Insecticidal test for diamondback moths; conditions: Plutella xylostella, 144 h; 500 ppm chemical solution, leaves soaked, third-instar larvae, six days, 25°C; read-out: death rate
Procedure, shortened: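 Leaves dipped about 10 s in a 500 ppm aqueous dilution of an emulsion formulation with spreader, then air-dried. Five third-instar larvae released per dish and held at 25 °C. Tested in duplicate.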

[5] = system: cat fleas (Ctenocephalides felis); experiment: whole plant or invertebrate; conditions: 72 h, read-out: death rate
Procedure, shortened: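 Glass containers (25 cm² inner surface) were coated with 250 µl of a 1000 ppm acetone solution, and the acetone was evaporated to leave a dry film. Five mixed-sex adult fleas were confined per container at 25°C. Mortality was scored after 3 days.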

[6] = system: kennel ticks (Rhipicephalus sanguineus); experiment: Effect test for kennel ticks; conditions: 10 µg/cm^2 thin film in glass container, protonymphs, two days, 25°C; for mortality at 10 µg/cm2: Rhipicephalus sanguineus, 48 h, read-out: death rate
Experimental: In 1 ml of acetone, 1 mg of the presently invented compound was dissolved to prepare a chemical solution having a concentration of 1000 ppm. The bottom surface and side surface of each glass container having an inner wall surface area of 25 cm^2 were coated with 250 µl of the chemical solution, and acetone was then volatilized to form a thin film of the compound on the inner wall of the glass container.
Into each of the treated glass containers, five kennel ticks (Rhipicephalus sanguineus) protonymphs (mixed-sex) were released, and the glass containers were capped and accommodated in a thermostatic room at 25°C.

Row | Structure (SMILES) | mortality at 500 µg/mL [1] [%] | mortality at 500 µg/mL [2] [%] | mortality at 500 µg/mL [3] [%] | mortality at 500 µg/mL [4] [%] | mortality at 10 µg/cm2 [5] [%] | death rate [6] [%] | mortality at 10 µg/cm2 [6] [%]
1 | O=C(Nc1cnccc1F)C1=C(O)CC(c2cnc(Cl)c(-c3cncc(Cl)c3)c2)NC1=O (stereo not shown) [2-146] | ≥ 90 | ≥ 90 | ≥ 90 | ≥ 90 | ≥ 50 |  | 
2 | O=C(Nc1ncc(Cl)cn1)C1=C(O)CC(c2cnc(Cl)c(-c3cccnc3)c2)NC1=O (stereo not shown) [2-100] | ≥ 90 | ≥ 90 | ≥ 90 | ≥ 90 | ≥ 50 |  | 
3 | O=C(Nc1ccc(F)cn1)C1=C(O)CC(c2nc(-c3ccc(O)nc3)no2)NC1=O (stereo not shown) [3-101] |  |  |  |  |  | ≥ 50 | 
4 | O=C(Nc1c(F)cccc1F)C1=C(O)CC(c2nc(-c3ccncc3F)no2)NC1=O (stereo not shown) [3-166] | ≥ 90 | ≥ 90 |  | ≥ 90 | ≥ 50 |  | ≥ 50
5 | Cc1cccc(-c2cc(C3CC(O)=C(C(=O)Nc4ncccn4)C(=O)N3)cnc2Cl)c1 (stereo not shown) [2-271] | ≥ 90 | ≥ 90 | ≥ 90 | ≥ 90 | ≥ 50 |  | 
6 | O=C(Nc1ccc(F)cc1)C1=C(O)CC(c2ccc(C(F)(F)F)c(-c3ccc(F)cc3)c2)NC1=O (stereo not shown) [1-007] |  | ≥ 90 | ≥ 90 | ≥ 90 | ≥ 50 |  | ≥ 50
7 | O=C(Nc1nccs1)C1=C(O)CC(c2nc(-c3ccncc3F)no2)NC1=O (stereo not shown) [3-246] | ≥ 90 | ≥ 90 | ≥ 90 | ≥ 90 | ≥ 50 |  | 
8 | O=C(Nc1cnc(Cl)cn1)C1=C(O)CC(c2nc(-c3ccc(F)nc3)no2)NC1=O (stereo not shown) [3-269] | ≥ 90 | ≥ 90 | ≥ 90 | ≥ 90 | ≥ 50 |  | 
9 | O=C(Nc1ccc(F)cc1)C1=C(O)CC(c2ccc(C(F)(F)F)c(-c3ccc(F)nc3)c2)NC1=O (stereo not shown) [1-001, N-(4-fluorophenyl)-6-[3-(6-fluoropyridin-3-yl)-4-(trifluoromethyl)phenyl]-4-hydroxy-2-oxo-1,2,5,6-tetrahydropyridine-3-carboxamide] | ≥ 90 | ≥ 90 | ≥ 90 | ≥ 90 | ≥ 50 |  | 
10 | O=C(Nc1cc(F)ccn1)C1=C(O)CC(c2nc(-c3ccc(F)cc3)no2)NC1=O (stereo not shown) [3-056] | ≥ 90 | ≥ 90 | ≥ 90 | ≥ 90 | ≥ 50 |  | 
11 | O=C(Nc1cncc(F)c1)C1=C(O)CC(c2cnc(Cl)c(-c3cnccc3F)c2)NC1=O (stereo not shown) [2-137] | ≥ 90 | ≥ 90 | ≥ 90 | ≥ 90 | ≥ 50 |  | 
12 | O=C(Nc1ccc(F)cc1)C1=C(O)CC(c2nc(-c3cccc(F)c3)no2)NC1=O (stereo not shown) [3-011] | ≥ 90 | ≥ 90 | ≥ 90 | ≥ 90 | ≥ 50 |  | 
13 | O=C(Nc1ccc(F)nc1)C1=C(O)CC(c2cnc(Cl)c(-c3ccccc3)c2)NC1=O (stereo not shown) [2-091] | ≥ 90 | ≥ 90 | ≥ 90 | ≥ 90 | ≥ 50 |  | 
14 | O=C(Nc1ccc(F)cc1)C1=C(O)CC(c2nc(-c3cccc(Br)c3)no2)NC1=O (stereo not shown) [3-028] | ≥ 90 | ≥ 90 | ≥ 90 | ≥ 90 | ≥ 50 |  | 
15 | O=C(Nc1cnccc1Cl)C1=C(O)CC(c2nc(-c3ccncc3Cl)no2)NC1=O (stereo not shown) [3-228] | ≥ 90 | ≥ 90 | ≥ 90 | ≥ 90 | ≥ 50 |  | 
16 | O=C(Nc1cnc(Br)cn1)C1=C(O)CC(c2cnc(Cl)c(-c3cccnc3)c2)NC1=O (stereo not shown) [2-099] | ≥ 90 | ≥ 90 | ≥ 90 | ≥ 90 | ≥ 50 |  | 
17 | O=C(Nc1cc(F)ccn1)C1=C(O)CC(c2nc(-c3c(F)cc(F)cc3F)no2)NC1=O (stereo not shown) [3-144] | ≥ 90 | ≥ 90 | ≥ 90 | ≥ 90 | ≥ 50 |  | 
18 | O=C(Nc1ccc(F)cc1)C1=C(O)CC(c2ccc(C(F)(F)F)c(-c3cccc(F)c3)c2)NC1=O (stereo not shown) [1-006] |  | ≥ 90 |  | ≥ 90 | ≥ 50 |  | ≥ 50
19 | O=C(Nc1ccc(Cl)cc1)C1=C(O)CC(c2cnc(Cl)c(-c3ccc(F)nc3)c2)NC1=O (stereo not shown) [2-035, 6'-chloro-N-(4-chlorophenyl)-6"-fluoro-4-hydroxy-6-oxo-1,2,3,6-tetrahydro-[2,3':5',3"-terpyridine]-5-carboxamide] | ≥ 90 | ≥ 90 | ≥ 90 | ≥ 90 | ≥ 50 |  | 
20 | O=C(Nc1cc(F)ccn1)C1=C(O)CC(c2nc(-c3ccccc3)no2)NC1=O (stereo not shown) [3-055] | ≥ 90 | ≥ 90 | ≥ 90 | ≥ 90 | ≥ 50 |  | 
21 | O=C(Nc1ccc(F)cc1)C1=C(O)CC(c2nc(-c3ccc(F)c(F)c3)no2)NC1=O (stereo not shown) [3-027] | ≥ 90 | ≥ 90 | ≥ 90 | ≥ 90 | ≥ 50 |  | 
22 | O=C(Nc1ncccc1F)C1=C(O)CC(c2cnc(Cl)c(-c3cnccc3F)c2)NC1=O (stereo not shown) [2-141] | ≥ 90 | ≥ 90 | ≥ 90 | ≥ 90 | ≥ 50 |  | 
23 | O=C(Nc1ccc(F)cc1)C1=C(O)CC(c2ccc(C(F)(F)F)c(-c3ccncc3)c2)NC1=O (stereo not shown) [1-014] | ≥ 90 | ≥ 90 | ≥ 90 | ≥ 90 | ≥ 50 |  | 
24 | Cc1cccnc1NC(=O)C1=C(O)CC(c2nc(-c3ccc(F)cc3F)no2)NC1=O (stereo not shown) [3-174] | ≥ 90 | ≥ 90 | ≥ 90 | ≥ 90 | ≥ 50 |  | 
25 | O=C(Nc1ccccn1)C1=C(O)CC(c2nc(-c3ccccc3F)no2)NC1=O (stereo not shown) [3-186] | ≥ 90 |  | ≥ 90 | ≥ 90 | ≥ 50 |  | ≥ 50
26 | O=C(Nc1ccc(F)cn1)C1=C(O)CC(c2nc(-c3snc(Cl)c3Cl)no2)NC1=O (stereo not shown) [3-254] | ≥ 90 | ≥ 90 | ≥ 90 | ≥ 90 | ≥ 50 |  | 
27 | O=C(Nc1ccc(F)cn1)C1=C(O)CC(c2nc(-c3ncco3)no2)NC1=O (stereo not shown) [3-265] | ≥ 90 | ≥ 90 | ≥ 90 | ≥ 90 | ≥ 50 |  | 
